Source: patent EP2924039A1, “2-Amino-1-phenyl-pyrrolo[3,2-b]quinoxaline-3-carboxamide derivates” (Universität Zürich, priority 2014, dated 2015)

Key:
[1] = In vivo pharmacokinetics in blood plasma; parameters: species or system male CD-1 (ICD) mice; settings: for T1/2 (min, PO) / Cmax / Tmax: 5 mg/kg, PO; for Bio-availability (%): [AUClast(PO)*Dose(IV)] / [AUClast(IV)*Dose(PO)], PO 5 mg/kg, IV 1 mg/kg; for Tmax: read-out: Tmax (min, PO) (converted)
Experimental: Evaluation of the in vivo pharmacokinetics of a subset of compounds was performed through analysis of compound concentration in the blood plasma of male CD-1 (ICD) mice (each weighing 20-30g) over a 24 hour period (at time points of 3, 10, 30, 60, 120, 240, 360 and1440 minutes) following a single oral (PO) and intravenous (IV, in tail vein) administration of a compound dose corresponding to 5 mg of compound/kg of mouse body weight (PO) and 1 mg of compound/kg of mouse body weight (IV). For IV dosing, each compound was formulated as a clear solution in DMSO/Solutol® HS 15/phosphate-buffered saline, pH 7.4 (PBS) (5/5/90, v/v/v). For PO dosing, compounds were formulated as a homogeneous suspension in DMSO/1% methylcellulose (5/95, v/v).
At the relevant time point, blood samples (300-400 µL) were collected from the mice under general inhalant anaesthesia by cardiac puncture and stored on ice in 0.6 mL polypropylene heparin-lithium-coated tubes. Within 1 hour of collection, each tube was centrifuged at 2500 G for 15 minutes at 4°C and harvested plasma stored at -20°C.
Compound concentration in plasma at each time point was determined following acetonitrile precipitation of each sample followed by HPLC-MS analysis performed in triplicates, i.e., based on the mean of the compound concentration at that time point in blood samples of three mice.
T1/2 is the terminal elimination half-life following IV and PO dosing (obtained from non-compartmental analysis (NCA) of the plasma data using WinNonLin). Tmax is the time following PO administration at which the maximum concentration is observed (obtained from non-compartmental analysis (NCA) of the plasma data using WinNonLin). Cmax corresponds to the concentration observed at Tmax following PO administration (obtained from non-compartmental analysis (NCA) of the plasma data using WinNonLin). Bioavailability was calculated as the ratio of: [AUClast(PO)*Dose(IV)] / [AUClast(IV)*Dose(PO)] where AUClast is the area under the curve (estimated by summing incremental areas of a series of trapezoids) of a plot of compound concentration versus time, up to the time of the last observation that is greater than the limit of quantification. Table 6: In vivo pharmacokinetics (min: minutes)

[2] = system: A498 (kidney cancer) cells; assay: Cell culture and GI50 determination (resazurin), A-498; assay type: cell-based; settings: Homo sapiens, A-498, 48h incubation
Experimental: Krek (Institute of Cell Biology, ETH Zurich) were cultured in Dulbelcco's modified Eagle's medium (DMEM) supplemented with 10% (v/v) fetal bovine serum. K562 leukemia cells obtained from Dr. Silvio Hemmi (Institute of Molecular Life Sciences, UZH) were cultured using RPMI medium supplemented with 5% (v/v) fetal bovine serum. All the media was additionally supplemented with 100 units/mL of penicillin, 100µg/mL of streptomycin, 4.5 g/L glucose, 0.11g/L sodium pyrubate and 2mM glutamine and the cells were grown at 37°C in 5% CO2 atmosphere with 80% relative humidity.
The old media was removed, the cells were washed with PBS (phosphate-buffered saline) and fresh media was added. […] Control cells were treated with the same DMSO concentrations. […] After 3 hours, the fluorescence was quantified using a fluorescence microplate reader (Biotek, FLx800™) at the respective excitation and emission wavelength of 560 and 590 nm. Resazurin becomes fluorescent under mitochondrial reduction and its emission directly correlates with the metabolic stability of the cells. […] All measurements were performed at least in triplicate (see table 1).

[3] = male, CD-1 (ICD), mouse, mice plasma

Row | T1/2 (min, IV) ([1]; IV, 1 mg/kg, mice plasma) | T1/2 (min, PO) ([1]; mice plasma) | Bio-availability (%) [1] | Cmax [1, 3] | Tmax [1, 3] | GI50 [2] | half-life ([1]; male, CD-1 (ICD), mouse, IV, 1 mg/kg, mice plasma, read-out: T1/2 (min, IV)) | Compound
1 | 1.1 h | 2.78 h | 30% | 164 ng/mL | 1 h |  |  | NC(=O)c1c(N)n(-c2cccc(C(=O)Nc3cccc(C(F)(F)F)c3)c2)c2nc3ccccc3nc12 [Compound 10c, 2-amino-1-(3-((3-(trifluoromethyl)phenyl)carbamoyl)phenyl)-1H-pyrrolo[2,3-b]quinoxaline-3-carboxamide]
2 |  | 4.95 h | 10% | 45 ng/mL | 2 h | 13.4 µM | 1.18 h | NC(=O)c1c(N)n(-c2cccc(NC(=O)c3cccc(C(F)(F)F)c3)c2)c2nc3ccccc3nc12 [Compound 10d, 2-amino-1-(3-(3-(trifluoromethyl)benzamido)phenyl)-1H-pyrrolo[2,3-b]quinoxaline-3-carboxamide]
